Results as given in patent publication US20160213742A1, “COMPOSITIONS AND METHODS FOR THE TREATMENT OF FUNGAL INFECTIONS” (priority 2013, published 2016).
≈ marks a conversion by molar mass, not a printed value.

Tests used:
Type in all cases: cell-based
C. albicans ATCC 90028 = assay: microbe, parasite or virus in culture
In short: (§1)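 Yeast colonies were suspended to a 0.5 McFarland standard and diluted 1:100, while Aspergillus suspensions were diluted to ~0.2-2.5×10^4 CFU/mL final. Organisms were then exposed to 2-fold compound series in RPMI, pH 7.0, at 35° C. for approximately 24-48 hr before visual MIC/MEC reading.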

C. krusei ATCC 14243 = assay: microbe, parasite or virus in culture
In short: as §1

[1] = test system: C. parapsilosis ATCC 22019; assay: microbe, parasite or virus in culture
In short: as §1

human neutrophils = assay: Microfluidic Neutrophil Chemotaxis assay; conditions: for neutrophil (NF) migration counts (FIG. 1): 4 hour timepoint, in the presence of Aspergillus fumigatus, Compound 1, Compound 11, caspofungin acetate 10 nM, fMLP 100 nM, relative to A. fumigatus alone
Source text: Two layers of photoresist (SU8; […] The wafer with patterned photoresist was used as a mold to produce polydimethylsiloxane (PDMS) (Fisher Scientific) devices, which were then bonded to the base of glass-bottom 12- or 24-well plates, using an oxygen plasma machine (Nordson-March). De-identified, fresh human blood samples from healthy volunteers, aged 18 years and older, who were not receiving immunosuppressants, were purchased from Research Blood Components, LLC. Peripheral blood was drawn in tubes containing a final concentration of 5 mM EDTA (Vacutainer; Becton Dickinson) and processed within 2 h of blood collection. Using a sterile technique, neutrophils were isolated from whole blood using HetaSep followed by the EasySep Human Neutrophil Enrichment Kit (STEMCELL Technologies) following the manufacturer's protocol. The purity of neutrophils was assessed to be >98% using the Sysmex KX-21N Hematology Analyzer (Sysmex America, Inc.). White blood cells were isolated using Hetasep followed by a 5 min spin down and wash with 1×PBS. White blood cells were stained with Hoechst (32.4 μM) (Sigma) following the manufacture's protocols. The final aliquots of white blood cells were resuspended in RPMI plus 10% fetal bovine serum (FBS−stock 50 mL FBS/450 mL RPMI) (Sigma-Aldrich) at a concentration of 20,000 cells/2 μL and kept at 37° C. Cells were then immediately introduced into the microfluidic device for the chemotaxis and Aspergillus fumigatus killing assay. All experiments were repeated at least three times with neutrophils or white blood cells from three different healthy donors. Immediately after bonding to the well plate, donut-shaped devices were filled with Aspergillus fumigatus conidia at a concentration of 10^6 cells/mL with or without either Compound 1 or Compound 11 [10 nM], caspofungin acetate [10 nM] and/or a solution of the chemoattractant N-formyl-methionyl-leucyl-phenylalanine (fMLP) [100 nM](Sigma-Aldrich, St. Louis, Mo.). The device was then placed in a vacuum for 15 min. The solution filled all of the FCCs as the air was displaced. The devices were then vigorously washed five times with 1×PBS to remove any residual Aspergillus fumigatus conidia, drug or chemoattractant that was outside of the FCCs. The device was then submerged in 0.5 mL of cell media. Neutrophils or white blood cells (20,000 cells/2 μL) were then pipetted into the cell loading chamber (CLC) using a gel-loading pipette tip. […] Image analysis of cell migration counts and fungi growth was analyzed by hand using Image J software. Neutrophil counts per chamber were counted every 15 min for the first 2 hours of the experiment and then every hour for the remaining 16 hours. Percentage of conidia that converted to hyphal growth was measured by counting conidia loaded per chamber before neutrophils or WBCs were loaded into the chamber and counting numbers of these conidia that grew hyphae by 18 hours. Fungal growth velocity was calculated using Image J. The 16 chambers in each device (n=3) were analyzed for at least three different healthy donors.

Compound	MIC (C. albicans ATCC 90028; ATCC 90028, pH 7)	MIC (C. krusei ATCC 14243; ATCC 14243, pH 7)	MIC ([1]; ATCC 22019, pH 7)	neutrophil (NF) migration counts (FIG. 1) (human neutrophils)	timecourse of neutrophil (PMNs) migration in FCCs (FIG. 4) (human neutrophils; with A. fumigatus, three healthy blood donors, t=0, 8, and 16 hours)	MIC (C. albicans ATCC 90028; C. albicans ATCC 90028, RPMI pH 7.0, 35° C., 24-48 hr)	MIC (C. krusei ATCC 14243; C. krusei ATCC 14243, RPMI pH 7.0, 35° C., 24-48 hr)	MIC ([1]; C. parapsilosis ATCC 22019, RPMI pH 7.0, 35° C., 24-48 hr)
CC[C@H](C)C[C@H](C)CCCCCCCCC(=O)N[C@H]1C[C@@H](O)[C@@H](NCCN)NC(=O)[C@@H]2[C@@H](O)CCN2C(=O)[C@H]([C@H](O)CCNC(=O)[C@H](Cc2ccccc2)NC(=O)[C@H](CC(C)C)NC(=O)[C@H](CCSC)NC=O)NC(=O)[C@H]([C@H](O)[C@@H](O)c2ccc(O)cc2)NC(=O)[C@@H]2C[C@@H](O)CN2C(=O)[C@H]([C@@H](C)O)NC1=O [Compound 1]	2 µg/mL (≈ 1.32 µM)	8 µg/mL (≈ 5.29 µM)	16 µg/mL (≈ 10.6 µM)	increased NF migration				
CC[C@H](C)C[C@H](C)CCCCCCCCC(=O)N[C@H]1C[C@@H](O)[C@@H](OCCN)NC(=O)[C@@H]2[C@@H](O)CCN2C(=O)[C@H]([C@H](O)CCNC(=O)[C@H](Cc2ccccc2)NC(=O)[C@H](CC(C)C)NC(=O)[C@H](CCSC)NC=O)NC(=O)[C@H]([C@H](O)[C@@H](O)c2ccc(O)cc2)NC(=O)[C@@H]2C[C@@H](O)CN2C(=O)[C@H]([C@@H](C)O)NC1=O [Compound 11]	2 µg/mL (≈ 1.32 µM)	16 µg/mL (≈ 10.6 µM)	32 µg/mL (≈ 21.1 µM)	increased NF migration	migration of PMNs			
caspofungin acetate [reference compound]				did not give increased NF migration		0.03 to 0.12 µg/mL	0.5 to 1 µg/mL	0.5 to 1 µg/mL
